In the Deep4Chem optical property database:

Test: solvent given as SMILES
[1] = in c1cc(-c2cccc(-n3c4ccccc4c4ccccc43)c2)cc(-n2c3ccccc3c3ccccc32)c1

`CCCCn1c(-c2ccc(-c3ccc(-c4ccc(-c5n(CCCC)c6cc(C)ccc6[n+]5CCCC)cc4)cc3)cc2)[n+](CCCC)c2ccc(C)cc21` gave an emission maximum (in O) of 397 nm.

In the case of `Cc1cc(C)c(C2=C3C=CC(c4ccccc4O)=[N+]3[B-]3(c4ccccc4)Oc4ccccc4-c4ccc2n43)c(C)c1` (stereo unspecified), the emission maximum (in ClC(Cl)Cl) is reported as 614 nm.

With `c1ccc(N(c2ccccc2)c2ccc(-c3nc(-c4ccc(N(c5ccccc5)c5ccccc5)cc4)c4ccccc4n3)cc2)cc1` the emission maximum (in C1CCCCC1) was 447 nm, the emission maximum (in C1CCOC1) was 518 nm and the emission maximum (in CC#N) was 565 nm. For the same compound, the emission maximum (in CS(C)=O) was 568 nm and the emission maximum (in ClCCl) was 534 nm.

`CCOC(=O)c1c(-c2cc3ccc(OC)cc3oc2=O)nn(-c2cccc(Cl)c2)c1C(=O)OCC` gave an emission maximum (in ClCCl) of 422 nm.

Compound `CN(C)c1ccc2nc(-c3ccc(C=C(C#N)C#N)cc3)sc2c1` has an emission maximum (in C1CCCCC1) of 526 nm and an emission maximum (in ClC(Cl)Cl) of 683 nm.

`O=C(c1ccc(N2c3ccccc3Oc3ccccc32)cc1)c1cccc(C(=O)c2ccc(N3c4ccccc4Oc4ccccc43)cc2)c1` showed an emission maximum (in Cc1ccccc1) of 566 nm and an emission maximum [1] of 541 nm.

With `CC1=CC(C)=[N+]2C1=C(c1ccc(O)cc1)c1c(C)cc(/C=C/C=C3/N(C)c4ccccc4C3(C)C)n1[B-]2(F)F` the emission maximum (in O) was 708 nm.

`CCCCCCc1ccsc1-c1cc2c3cc(-c4sccc4CCCCCC)c4nc(C(F)(F)C(F)(F)C(F)(F)F)nc5c(-c6sccc6CCCCCC)cc(c6cc(-c7sccc7CCCCCC)c7nc(C(F)(F)C(F)(F)C(F)(F)F)nc1c7c26)c3c45` showed an emission maximum (in C1CCOC1) of 627 nm.

For `Brc1ccc(N(c2ccc(/C=C/c3ccncn3)cc2)c2ccc(/C=C/c3ccncn3)cc2)cc1`, the emission maximum (in ClCCl) was 555 nm.

With `Cc1ccc(C2=C3C=C4C(=[N+]3[B-](F)(F)n3c2cc2c3-c3ccccc3C23c2ccccc2-c2ccccc23)c2ccccc2C42c3ccccc3-c3ccccc32)cc1` the emission maximum (in C1CCOC1) was 642 nm.

Work on `CN(C)c1ccc(/C=C2\CCCC2=O)cc1` yielded an emission maximum (in CC#N) of 488 nm, an emission maximum (in CC(C)=O) of 474 nm and an emission maximum (in CC(C)O) of 472 nm. The emission maximum (in CCCCCC) was 405 nm, the emission maximum (in CCCCO) was 479 nm and the emission maximum (in CCCO) was 479 nm. The emission maximum (in CCO) was 480 nm, the emission maximum (in CCOC(C)=O) was 448 nm and the emission maximum (in CCOCC) was 420 nm. It also gave an emission maximum (in CN(C)C=O) of 504 nm, an emission maximum (in CO) of 488 nm and an emission maximum (in CS(C)=O) of 493 nm. For the same compound, the emission maximum (in Cc1ccccc1) was 424 nm, the emission maximum (in ClC(Cl)(Cl)Cl) was 431 nm and the emission maximum (in ClC(Cl)Cl) was 469 nm. For the same compound, the emission maximum (in ClCCl) was 472 nm, the emission maximum (in S=C=S) was 422 nm and the emission maximum (in c1ccccc1) was 435 nm. It also gave an emission maximum (in c1ccncc1) of 480 nm.

`CCn1c(-c2ccc(-c3ccc4c(c3)C(C)(C)c3ccccc3-4)cc2)c(-c2ccc3ccccc3c2)c(-c2ccc3ccccc3c2)c1-c1ccc(-c2ccc3c(c2)C(C)(C)c2ccccc2-3)cc1` gave an emission maximum (in CCOC(C)=O) of 442 nm.

For `COc1cc2c3c(c4cc(OC)c(OC)c(OC)c4c2c(OC)c1OC)=[N+]1C(=C(c2c(C)cc(C)cc2C)c2cc4c5cc(OC)c(OC)c(OC)c5c5c(OC)c(OC)c(OC)cc5c4n2[B-]1(F)F)C=3`, the emission maximum (in C1CCCCC1) was 749 nm, the emission maximum (in C1CCOC1) was 763 nm and the emission maximum (in CC#N) was 755 nm. For the same compound, the emission maximum (in Cc1ccccc1) was 767 nm and the emission maximum (in ClCCl) was 771 nm.

For `CCOC(=O)c1ccccc1-c1c2ccc(=O)cc-2oc2cc(OC(=O)[C@H](CO[Si](C)(C)C(C)(C)C)NC(=O)OC(C)(C)C)ccc12`, the emission maximum (in C1CCOC1) was 512 nm, the emission maximum (in CC#N) was 542 nm and the emission maximum (in CCO) was 525 nm. For the same compound, the emission maximum (in CS(C)=O) was 547 nm.

Work on `O=S(=O)(c1ccc(N(c2ccccc2)c2ccccc2)cc1)c1ccc(N(c2ccccc2)c2ccccc2)cc1` yielded an emission maximum (in Cc1ccccc1) of 402 nm and an emission maximum (in O=P(c1ccccc1)(c1ccccc1)c1ccccc1Oc1ccccc1P(=O)(c1ccccc1)c1ccccc1) of 421 nm.

`CCCCCCn1c2ccccc2c2cc3c4cc5c6ccccc6n(CCCCCC)c5cc4c4cc5c(C)cc(=O)oc5cc4c3cc21` showed an emission maximum (in ClC(Cl)Cl) of 415 nm.

For `CN(C)c1ccc(-c2nc(-c3ccc(N(C)C)cc3)c3ccccc3n2)cc1`, the emission maximum (in C1CCCCC1) was 436 nm, the emission maximum (in C1CCOC1) was 528 nm and the emission maximum (in CC#N) was 571 nm. The emission maximum (in CS(C)=O) was 575 nm and the emission maximum (in ClCCl) was 530 nm.

With `c1ccc2c(c1)[nH]c1ccccc12` the emission maximum (in CC#N) was 340 nm, the emission maximum (in CCCCCC) was 332 nm and the emission maximum (in CCO) was 339 nm.

Compound `CC(C)(C)c1ccc2c3ccccc3c3cncnc3c2c1` has an emission maximum (in ClCCl) of 376 nm.

With `Cc1ccc(-c2ccc(/C=C/c3ccc(Br)n3C)cn2)nc1` the emission maximum (in CC#N) was 480 nm.

`O=C(O)CCCc1cc(C#Cc2ccccc2)c2ccc3c(C#Cc4ccccc4)cc(C#Cc4ccccc4)c4ccc1c2c34` gave an emission maximum (in CS(C)=O) of 461 nm and an emission maximum (in ClC(Cl)(Cl)Cl) of 460 nm.

Work on `O=C(c1ccc(-n2c3ccc(-c4ccccc4)cc3c3cc(-c4ccccc4)ccc32)cc1)c1ccc(-n2c3ccc(-c4ccccc4)cc3c3cc(-c4ccccc4)ccc32)cc1` yielded an emission maximum (in Cc1ccccc1) of 438 nm.

`COc1cc(-c2nc3sc4ccccc4c3s2)cc(OC)c1OC` showed an emission maximum (in CS(C)=O) of 424 nm.

In the case of `Cc1cc(-c2nc(-c3ccccc3)nc(-c3ccccc3)n2)ccc1-c1ccc2c(c1)C1(c3ccccc3-c3ccccc31)c1ccccc1N2c1ccccc1`, the emission maximum [1] is reported as 450 nm.

`C[Si](C)(C)[Si](C)(C)c1c2ccccc2cc2ccccc12` showed an emission maximum (in C1CCCCC1) of 429 nm and an emission maximum (in CC#N) of 430 nm.

Work on `CC(=O)[B-]1(C(C)=O)OC(c2ccccc2)=CC(c2ccc3ccccc3c2)=[O+]1` yielded an emission maximum (in CC#N) of 510 nm and an emission maximum (in ClC(Cl)(Cl)Cl) of 419 nm.

Compound `Cc1cccc(C)c1N1C(c2ccccc2)=Cc2cccc[n+]2[B-]1(F)F` has an emission maximum (in ClCCl) of 453 nm.

With `O=C(O)CCCCCn1/c(=C/C=C/C2=[N+](CCCCCC(=O)O)c3cccc4cccc2c34)c2cccc3cccc1c32` the emission maximum (in CO) was 773 nm.

Compound `O=S1(=O)C2=C(c3ccccc31)C1(c3ccccc32)c2ccccc2-c2sc3ccccc3c21` (stereo unspecified) has an emission maximum (in ClCCl) of 459 nm.

In the case of `c1cc2c3cscc3c3ccsc3c2s1`, the emission maximum (in ClC(Cl)Cl) is reported as 395 nm.

`O=C(O)CCNc1cccc2ccccc12` gave an emission maximum (in CCO) of 417 nm.

For `CN1/C(=C/C=C(/C=C/c2sc3ccccc3[n+]2C)c2ccc(F)cc2)Sc2ccccc21`, the emission maximum (in CCO) was 674 nm, the emission maximum (in CO) was 674 nm and the emission maximum (in CS(C)=O) was 681 nm. For the same compound, the emission maximum (in O) was 669 nm.

`COC(=O)/C(C#N)=c1\s/c(=c2/s/c(=C(/C#N)C(=O)OC)c3cc(-c4ccc(C(F)(F)F)cc4)sc23)c2sc(-c3ccc(C(F)(F)F)cc3)cc12` showed an emission maximum (in Cc1ccccc1) of 625 nm.

With `CCCCCCOc1ccc2c(c1)-c1cc3c(cc1[Si]2(C)C)-c1ccccc1[Si]3(C)C` the emission maximum (in ClCCl) was 387 nm.

`CN(C)c1ccc2[c](c1)[Ge]([CH3])([CH3])[C]1=CC(=[N+](C)C)C=CC1=C2` showed an emission maximum (in O) of 634 nm.

Work on `C[Si]1(C)c2ccccc2-c2cc3c(cc21)-c1ccccc1[Si]3(C)C` yielded an emission maximum (in ClCCl) of 384 nm.

In the case of `COc1ccc(-c2c3ccccc3c(C#Cc3ccccc3)c3cc4ccccc4cc23)cc1`, the emission maximum (in ClCCl) is reported as 550 nm.

Work on `CCCCn1c(-c2ccc(-c3ccc(-c4ccc(-c5n(CCCC)c6ccccc6[n+]5CCCC)cc4)cc3)cc2)[n+](CCCC)c2ccccc21` yielded an emission maximum (in O) of 397 nm.

`F[B-]1(F)n2c(c3cc4ccccc4cc3c2-c2ccccc2)C=C2c3cc4ccccc4cc3C(c3ccccc3)=[N+]21` showed an emission maximum (in C1CCOC1) of 782 nm, an emission maximum (in CN(C)C=O) of 788 nm and an emission maximum (in ClCCl) of 785 nm. It also gave an emission maximum (in c1ccccc1) of 785 nm.

Compound `CN(C)c1ccc(/C=C/c2cccnn2)cc1` has an emission maximum (in C1CCOC1) of 476 nm, an emission maximum (in CC#N) of 509 nm and an emission maximum (in CCCCCCC) of 459 nm. It also gave an emission maximum (in CS(C)=O) of 518 nm and an emission maximum (in ClCCl) of 480 nm.

Work on `c1ccc(-n2c(-c3ccccc3-n3c4ccccc4c4ccccc43)nc3ccccc32)cc1` yielded an emission maximum (in C1CCOC1) of 396 nm.

Compound `COc1ccc2c(c1)N(c1ccccc1-c1ccccc1)c1cc3c(cc1=N2)Oc1c(cc(C(C)(C)C)cc1C(C)(C)C)N=3` has an emission maximum (in CC#N) of 619 nm, an emission maximum (in CCCCCC) of 583 nm and an emission maximum (in CO) of 636 nm.

Work on `Cc1ccc2c(c1)C(c1ccccc1)(c1ccccc1)c1cc(C)ccc1N2c1cc(C(C)C)c(B2c3ccccc3Sc3ccccc32)c(C(C)C)c1` yielded an emission maximum (in Cc1ccccc1) of 487 nm and an emission maximum (in O=P(c1ccccc1)(c1ccccc1)c1ccc2oc3ccc(P(=O)(c4ccccc4)c4ccccc4)cc3c2c1) of 485 nm.

Compound `N#CC1=c2c3cccc4cccc(c43)n2[B-](F)(F)[n+]2ccccc21` has an emission maximum (in C1CCOC1) of 530 nm, an emission maximum (in CC#N) of 527 nm and an emission maximum (in CCCCCC) of 530 nm. For the same compound, the emission maximum (in Cc1ccccc1) was 535 nm and the emission maximum (in ClCCl) was 530 nm.

For `CC1=N/C(=C\c2cccc(N(C)C)c2)C(=O)N1CCO`, the emission maximum (in C1CCOC1) was 585 nm, the emission maximum (in CC#N) was 656 nm and the emission maximum (in CCCCCC) was 506 nm.

Compound `N#Cc1c(-n2c3ccccc3c3cc(I)ccc32)c(C#N)c(-n2c3ccccc3c3cc(I)ccc32)c(-n2c3ccccc3c3cc(I)ccc32)c1-n1c2ccccc2c2cc(I)ccc21` has an emission maximum (in Cc1ccccc1) of 518 nm.

In the case of `c1ccc2nc3cccc(-c4ccc(-n5c6ccccc6c6ccccc65)cc4)c3cc2c1`, the emission maximum (in C1CCOC1) is reported as 466 nm, the emission maximum (in CC#N) is reported as 527 nm and the emission maximum (in CC(C)=O) is reported as 497 nm. For the same compound, the emission maximum (in CC(C)OC(C)C) was 444 nm, the emission maximum (in CCCCCC) was 434 nm and the emission maximum (in CCCCOCCCC) was 442 nm. It also gave an emission maximum (in CCOC(C)=O) of 460 nm, an emission maximum (in CCOCC) of 443 nm and an emission maximum (in ClCCl) of 486 nm.

Work on `CC[N+]1(CC)CN2C(=N1)C(C(=O)O)=Cc1c2ccc2ccccc12` yielded an emission maximum (in O) of 487 nm.

Compound `Cc1ccc(C(=O)c2c(C)c3ccc4cccc5c6cccc7ccc2c(c76)c3c45)cc1` has an emission maximum (in ClCCl) of 450 nm.

For `CCCCCCCCc1ccc(-n2c3c4ccccc4nc(-c4ccc(C#N)cc4)c3c3c2c2c(-c4ccc(C#N)cc4)nc4ccccc4c2n3-c2ccc(CCCCCCCC)cc2)cc1`, the emission maximum (in ClC(Cl)Cl) was 510 nm.

Compound `CCCCCCCCCCCCn1cccc1/C=C/c1cc(OCCCC)c(/C=C/c2cccn2CCCCCCCCCCCC)cc1OCCCC` has an emission maximum (in Cc1ccccc1) of 472 nm.

`CC(C)[Si](C#Cc1ccc(C#C[Si](C(C)C)(C(C)C)C(C)C)c2nc3c(ccc4ccccc43)nc12)(C(C)C)C(C)C` showed an emission maximum (in CCCCCC) of 444 nm.

`c1cc2ccc1-c1ccc(cc1)-c1ccc(s1)-c1ccc(cc1)-c1ccc(cc1)-c1ccc(s1)-c1ccc(cc1)-c1ccc(cc1)-c1ccc(s1)-c1ccc(cc1)-c1ccc(cc1)-c1ccc-2s1` gave an emission maximum (in C1CCOC1) of 472 nm.
